Values of other authors as cited in patent publication US20100003319A1, “RALOXIFENE IMMEDIATE RELEASE TABLETS” (GLENMARK GENERICS LTD., priority 2008, published 2010).

Solubility in water: very slightly soluble
SMILES: O=C(c1ccc(OCCN2CCCCC2)cc1)c1c(-c2ccc(O)cc2)sc2cc(O)ccc12 [raloxifene, [6-hydroxy-2-(4-hydroxyphenyl)-benzothiophen-3-yl]-[4-[2-(1-piperidyl)ethoxy]phenyl]-methanone]
